# Laboratory results from patent publication US6096734A, “Photosensitizers for sensitizing cells” (The Secretary of State for Defence in Her Britannic …, priority 1993, dated 2000).
# Where two headings read alike, the source gives them in different places.
# Assays:
# [1] = ethanolic solution; Valduga et al 1988; cited from earlier work
# [2] = Triplet state studies by laser flash photolysis; assay type: physicochemical; settings: 1% pyridine in toluene, excitation 355 nm; for Triplet Quantum Yield: means of no less than four runs, compounds 8 and 9 run once
# Protocol: (§1) Triplet state studies were carried out using laser flash photolysis. Samples were prepared in a 1% pyridine in toluene solution; by preparing such a solution then it is believed that aggregation of the phthalocyanine cores is avoided. The solution was prepared so that an optical density of 0.2-0.3 at the excitation wavelength was obtained. Samples were irradiated by an excimer pumped dye laser at 355 nm and the transients monitored with the use of a quartz halogen lamp. Triplet quantum yields were calculated using ZnTPP and ZnPc as standards. The triplet quantum yield is the quantum yield of conversion from the excited singlet state to the triplet state.
# Compound example 10 is unsubstituted zinc phthalocyanine (ZnPc); this is included in the Table for means of comparison.
# The data in Table 2 are means of no less than four independent runs, except for compounds 8 and 9 which were run once.
# [3] = Singlet oxygen generation (luminescence at 1270 nm); assay type: physicochemical
# Protocol: as §1
# The generation of singlet oxygen by the phthalocyanines was also studied. The method of detection of the singlet oxygen involved measuring the intensity of luminescence at 1270 nm, corresponding to the forbidden transition from the excited singlet back down to the ground state, with a liquid nitrogen cooled germanium detector. Aerated samples were irradiated with the same system as described for the triplet state studies. Standards used were ZnTPP, ZnPc and anthracene.
# The data in Table 3 are means of no less than four independent runs, except for compounds 8 and 9 were run once.
# The properties of the decomposition products arising from irradiation of the phthalocyanines were investigated.
# [4] = set-up: species or system female Balb/c mice; settings: mouse, in vivo
# Protocol: In this investigation female Balb/c mice 20-22 g bearing a MS-2 fibrosarcoma intramuscularly implanted into the hind right leg were used as an animal model. On the 7th day after transplantation when the tumour diameter was 0.6-0.8 cm and no spontaneous necrosis could be detected, the mice were injected with 1.2 or 2.4 mg/kg ZnODPc incorporated into Cremophor emulsions. The preparation and characterisation of such emulsions has been described by L. Polo et al Cancer Lett. 66: 217-223, 1992. The amount of injected ZnODPc was estimated by diluting a known aliquot of the phthalocyanine-containing emulsion into THF and reading the absorbance at 701 nm (molar absorption coefficient 2.01×10^5 dm^3 mol^-1 cm^-1). The tumour-bearing mice were injected with 1.2 mg/kg ZnODPc in the tail vein. At 3 hours and 24 hours after administration, groups of three mice were sacrificed by prolonged exposure to ether vapours, the tumour and selected normal tissues (muscle, skin, liver and kidneys) were excised, washed with phosphate buffered saline (PBS) and assayed for the phthalocyanine content by spectrofluorimetric analysis after chemical extraction, see Reddi et al Br. J. Cancer 61: 407-411, 1990; typically a weighted amount of tissue was homogenized in 3 ml of 2% aqueous sodium dodecyl sulphate (SDS); the homegenate was incubated for 1 hour at room temperature under gentle magnetic stirring and 1 ml of the suspension was added with 2 ml of THF, centrifuged at 10 mins at 3000 rpm; the supernatant was collected and its fluorescence intensity was determined in the 670-770 nm interval (excitation at 650 nm). The fluorescence intensity was converted into ZnODPc concentration by interpolation with a calibration plot. Samples of blood were taken from the sacrificed animals, centrifuged to separate the erythocytes and the serum (50 μl) thus collected was diluted with 2% aqueous SDS (700 μl), added with 1.5 ml of THF and centrifuged for 10 mins at 3000 rpm. The ZnODPc concentration in the supernatant was determined by fluorescence spectroscopy as specified above. Special attention was focussed on the phthalocyanine content in the muscle which is the peritumoural tissue in the animal model exemplified in this study and the skin because of the frequent onset of persistent cutaneous photosensitivity in PDT patients. The determination of ZnODPc accumulation in liver and kidneys can provide useful information on the modality of its elimination from the organism. Analyses were carried out at 3 h intervals after photosensitizer injection and at 24 h which is generally considered to be the usual time interval for PDT treatment.
# MS-2 fibrosarcoma = test: Phototherapeutic studies: tumour response to PDT (visual observation, electron microscopy); assay type: in vivo, female Balb/c mice
# Protocol: (§2) In this investigation female Balb/c mice 20-22 g bearing a MS-2 fibrosarcoma intramuscularly implanted into the hind right leg were used as an animal model. On the 7th day after transplantation when the tumour diameter was 0.6-0.8 cm and no spontaneous necrosis could be detected, the mice were injected with 1.2 or 2.4 mg/kg ZnODPc incorporated into Cremophor emulsions. The preparation and characterisation of such emulsions has been described by L. Polo et al Cancer Lett. 66: 217-223, 1992. The amount of injected ZnODPc was estimated by diluting a known aliquot of the phthalocyanine-containing emulsion into THF and reading the absorbance at 701 nm (molar absorption coefficient 2.01×10^5 dm^3 mol^-1 cm^-1).
# The tumour bearing mice were injected with 2.4 mg/kg ZnODPc and after 24 h were irradiated by 600-700 nm light which was isolated from the emission of a quartz-halogen lamp (Teclas, Lugano Switzerland) by optical filtering. The light beam was focussed into a bundle of optical fibres, whose tip was positioned at a 1 cm distance from the tumour surface. The lamp was operated at 230 mW/cm^2 for a total delivered light dose of 400 J/cm^2.
# The tumour response was analyzed by visual observation, as well as by electron microscopy studies on tumour specimens taken at 6 h and 24 h after the end of the PDT. The procedure for the preparation of the samples and ultra structural determinations was performed as described by Milanesi et al. Br. J. Cancer 61: 846-850, 1990.
# At the same time endocytoplasmic vacuolisation 6 is frequently observed with some completely necrotic cells and loss of the organised tissue structure.
# [5] = Spectroscopic properties of ZnODPc (absorption, fluorescence); assay type: physicochemical
# Protocol: The fluorescence emission maximum, excited at 703 nm is at 712 nm.
# as §2
# [6] = Table 3, aerated samples, same system as triplet studies (1% pyridine in toluene), means of no less than four runs, compounds 8 and 9 run once
# [7] = irradiation conditions described, in words
smiles,measurement,setting,value
"[Zn+2].c1ccc2c(c1)-c1nc-2nc2[n-]c(nc3nc([n-]c4nc(n1)-c1ccccc1-4)-c1ccccc1-3)c1ccccc21 [Example 10, unsubstituted zinc phthalocyanine, reference compound]",Singlet Oxygen Quantum Yield,[1],approximately 0.4
same,Triplet Quantum Yield,[2],0.45
same,Singlet Oxygen Quantum Yield,[3]; [6],0.50
"CCCCCCCCCCc1ccc(CCCCCCCCCC)c2c1C1=NC2=Nc2c3c(CCCCCCCCCC)ccc(CCCCCCCCCC)c3c3[n]2[Zn][n]2c(c4c(CCCCCCCCCO)ccc(CCCCCCCCCO)c4c2=NC2=NC(=N3)c3c(CCCCCCCCCC)ccc(CCCCCCCCCC)c32)=N1 [Example 9, 1,4-Bis (9-Hydroxynonyl)-8,11,15,18,22,25-Hexadecylphthalocyaninato-Zinc]",Triplet Quantum Yield,[2],0.70
same,Singlet Oxygen Quantum Yield,[3]; [6],0.80
"CCCCCCCCCCc1ccc(CCCCCCCCCC)c2c1C1=NC2=Nc2c3c(CCCCCCCCCC)ccc(CCCCCCCCCC)c3c3[n]2[Zn][n]2c(c4c(CCCCCCCCCC)ccc(CCCCCCCCCC)c4c2=NC2=NC(=N3)c3c(CCCCCCCCCC)ccc(CCCCCCCCCC)c32)=N1 [Example 1, 1,4,8,11,15,18,22,25-octakis-decylphthalocyaninato-zinc]",accumulation in kidneys,[4],negligible amounts
same,liver concentrations,[4],comparatively low
same,presence in cutaneous districts (skin),[4],essentially no phthalocyanine is present
same,recovery from the peritumoural tissue,[4],No detectable amount
same,"Recovery, Kidney","[4]; iv, 1.2 mg/kg, 3 h",0.066 ± 0.008 μg of dye/g of tissue
same,"Recovery, Liver","[4]; iv, 1.2 mg/kg, 3 h",0.278 ± 0.053 μg of dye/g of tissue
same,"Recovery, Serum","[4]; iv, 1.2 mg/kg, 3 h",0.436 ± 0.324
same,"Recovery, Tumour","[4]; iv, 1.2 mg/kg, 3 h",0.073 μg of dye/g of tissue
same,"Recovery, Kidney","[4]; iv, 1.2 mg/kg, 24 h",0.O05 ± 0.002 μg of dye/g of tissue
same,"Recovery, Liver","[4]; iv, 1.2 mg/kg, 24 h",0.673 ± 0.140 μg of dye/g of tissue
same,"Recovery, Serum","[4]; iv, 1.2 mg/kg, 24 h",0.042 ± 0.015
same,"Recovery, Skin","[4]; iv, 1.2 mg/kg, 24 h",0.008 ± 0.001 μg of dye/g of tissue
same,"Recovery, Tumour","[4]; iv, 1.2 mg/kg, 24 h",0.132 ± 0.022 μg of dye/g of tissue
same,Triplet Lifetime,[2],50 μs
same,Triplet Quantum Yield,[2],0.67
same,tumour growth delay compared with untreated tumour-bearing mice,"MS-2 fibrosarcoma; 2.4 mg/kg, irradiated 24 h post-injection, 600-700 nm, 400 J/cm^2",significant delay in tumour growth
same,damage of blood vessels (electron microscopy),"MS-2 fibrosarcoma; 6 h after irradiation, FIG. 1",less heavily damaged
same,damage of tumour cells (electron microscopy),"MS-2 fibrosarcoma; 6 h after irradiation, FIG. 1",extensive damage of tumour cells
same,overall appearance of the tumour,MS-2 fibrosarcoma; 24 h after irradiation,deeply haemorrhagic
same,tissular damage (electron microscopy),"MS-2 fibrosarcoma; 24 h after irradiation, FIG. 2",remarkably more extensive at 24 h after irradiation
same,damage of cell nuclei,MS-2 fibrosarcoma; in words,extensive damage of cell nuclei
same,tumour damage upon photoexcitation with red light,MS-2 fibrosarcoma; in words,sufficient for inducing an efficient tumour damage
same,damage of blood capillaries,MS-2 fibrosarcoma; [7],appreciable damage of blood capillaries
same,main target of photosensitization,MS-2 fibrosarcoma; [7],malignant cells appear to be the main target
same,Singlet Oxygen Quantum Yield,[3]; [6],0.73
same,Singlet Oxygen Quantum Yield,[3]; toluene/pyridine solution,0.73±0.06
same,molar absorption coefficient,"[5]; THF, 701 nm",2.01×10^5 dm^3 mol^-1 cm^-1
same,absorption maximum,[5]; cyclohexane,703 nm
same,molar absorption coefficient (ε) at the absorption maximum,"[5]; cyclohexane, 703 nm",approximately 2.3×10^5 dm^3 mol^-1 cm^-1
same,fluorescence emission maximum,"[5]; cyclohexane, excited at 703 nm",712 nm
